Data from PubChem BioAssay (NCI).
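Cultured in 96-well plates, cells were exposed to test compound for 48 hours across five concentrations. TGI is the concentration that stops growth completely.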 Active and inactive are the calls of the source. Rule as the data show it: active = GI50 below about 0.43 µM; inactive = the rest.

Legend:
Test in all cases: growth of human tumour cells (NCI), 48 h
LOX IMVI melanoma = test system: LOX IMVI melanoma
SK-MEL-28 melanoma = test system: SK-MEL-28 melanoma
KM12 colon = test system: KM12 colon
HOP-62 NSCLC = test system: HOP-62 NSCLC
NCI-H522 lung = test system: NCI-H522 lung
K-562 leukemia = test system: K-562 leukemia
HT29 colon = test system: HT29 colon
U251 CNS = test system: U251 CNS
SNB-78 CNS = test system: SNB-78 CNS
SW-620 colon = test system: SW-620 colon
TK-10 renal = test system: TK-10 renal
CCRF-CEM leukemia = test system: CCRF-CEM leukemia
786-0 renal = test system: 786-0 renal
SK-MEL-5 melanoma = test system: SK-MEL-5 melanoma
SN12C renal = test system: SN12C renal
EKVX NSCLC = test system: EKVX NSCLC
RXF-631 renal = test system: RXF-631 renal
ACHN renal = test system: ACHN renal
NCI-H226 lung = test system: NCI-H226 lung
RXF 393 renal = test system: RXF 393 renal
DLD-1 colon = test system: DLD-1 colon
OVCAR-5 ovarian = test system: OVCAR-5 ovarian
A549 NSCLC = test system: A549 NSCLC
M14 melanoma = test system: M14 melanoma
OVCAR-3 ovarian = test system: OVCAR-3 ovarian
HCT-116 colon = test system: HCT-116 colon
HL-60(TB) leukemia = test system: HL-60(TB) leukemia
NCI-H23 lung = test system: NCI-H23 lung
SF-295 CNS = test system: SF-295 CNS
COLO 205 colon = test system: COLO 205 colon
OVCAR-4 ovarian = test system: OVCAR-4 ovarian
SF-539 CNS = test system: SF-539 CNS
HCT-15 colon = test system: HCT-15 colon
M19-MEL melanoma = test system: M19-MEL melanoma
NCI-H460 lung = test system: NCI-H460 lung
SR leukemia = test system: SR leukemia
HCC-2998 colon = test system: HCC-2998 colon
SNB-19 CNS = test system: SNB-19 CNS
SK-MEL-2 melanoma = test system: SK-MEL-2 melanoma
DMS 273 small cell lung = test system: DMS 273 small cell lung
KM20L2 colon = test system: KM20L2 colon
OVCAR-8 ovarian = test system: OVCAR-8 ovarian
MOLT-4 leukemia = test system: MOLT-4 leukemia
XF 498 CNS = test system: XF 498 CNS
UACC-62 melanoma = test system: UACC-62 melanoma
SF-268 CNS = test system: SF-268 CNS
LXFL 529 NSCLC = test system: LXFL 529 NSCLC
NCI/ADR-RES ovarian = test system: NCI/ADR-RES ovarian
UO-31 renal = test system: UO-31 renal
IGROV1 ovarian = test system: IGROV1 ovarian
CAKI-1 renal = test system: CAKI-1 renal
DMS 114 small cell lung = test system: DMS 114 small cell lung
SNB-75 CNS = test system: SNB-75 CNS
UACC-257 melanoma = test system: UACC-257 melanoma
RPMI-8226 leukemia = test system: RPMI-8226 leukemia
HOP-92 NSCLC = test system: HOP-92 NSCLC
MALME-3M melanoma = test system: MALME-3M melanoma
SK-OV-3 ovarian = test system: SK-OV-3 ovarian
A498 renal = test system: A498 renal

With `COc1ccc2cc1Oc1ccc(cc1)CC1c3cc4c(cc3CCN1C)Oc1c(OC)cc3c(c1O4)C(C2)N(C)CC3` (centres undefined) the TGI (LOX IMVI melanoma) was 2.81 µM, the TGI (SK-MEL-28 melanoma) was 2.91 µM and the TGI (KM12 colon) was 4.57 µM. It also gave a TGI (HOP-62 NSCLC) of 28 µM, a TGI (NCI-H522 lung) of 4.67 µM and a TGI (K-562 leukemia) of 6.02 µM. The TGI (HT29 colon) was 4.77 µM, the TGI (U251 CNS) was 4.47 µM and the TGI (SNB-78 CNS) was 48 µM. For the same compound, the TGI (SW-620 colon) was 3.79 µM, the TGI (TK-10 renal) was 31.3 µM and the TGI (CCRF-CEM leukemia) was 6.69 µM. It also gave a TGI (786-0 renal) of 23 µM, a TGI (SK-MEL-5 melanoma) of 21.1 µM and a TGI (SN12C renal) of 3.62 µM. For the same compound, the TGI (EKVX NSCLC) was 24.2 µM, the TGI (RXF-631 renal) was 31.1 µM and the TGI (ACHN renal) was 17.9 µM. It also gave a TGI (NCI-H226 lung) of 10.7 µM, a TGI (RXF 393 renal) of 7.93 µM and a TGI (DLD-1 colon) of 9.62 µM. For the same compound, the TGI (OVCAR-5 ovarian) was 26.5 µM, the TGI (A549 NSCLC) was 21.4 µM and the TGI (M14 melanoma) was 3 µM. For the same compound, the TGI (OVCAR-3 ovarian) was 19.5 µM, the TGI (HCT-116 colon) was 3.21 µM and the TGI (HL-60(TB) leukemia) was 4.25 µM. For the same compound, the TGI (NCI-H23 lung) was 18.2 µM, the TGI (SF-295 CNS) was 3.81 µM and the TGI (COLO 205 colon) was 2.83 µM. It also gave a TGI (OVCAR-4 ovarian) of 3.03 µM, a TGI (SF-539 CNS) of 3.9 µM and a TGI (HCT-15 colon) of 5.82 µM. For the same compound, the TGI (M19-MEL melanoma) was 14.3 µM, the TGI (NCI-H460 lung) was 3.6 µM and the TGI (SR leukemia) was 4.68 µM. For the same compound, the TGI (HCC-2998 colon) was 9.86 µM, the TGI (SNB-19 CNS) was 13.5 µM and the TGI (SK-MEL-2 melanoma) was 6.53 µM. For the same compound, the TGI (DMS 273 small cell lung) was 3.02 µM, the TGI (KM20L2 colon) was 9.25 µM and the TGI (OVCAR-8 ovarian) was 5.45 µM. For the same compound, the TGI (MOLT-4 leukemia) was 4.73 µM, the TGI (XF 498 CNS) was 3.41 µM and the TGI (UACC-62 melanoma) was 10.5 µM. For the same compound, the TGI (SF-268 CNS) was 13.1 µM and the TGI (LXFL 529 NSCLC) was 11 µM.

For `CC(C)=C1C(=O)C[C@@]2(C)C[C@H]3OC3(C)CC/C=C(/C)CCC12` (some centres undefined), the outcome (LOX IMVI melanoma) was “inactive”, the TGI (NCI/ADR-RES ovarian) was 95 µM and the outcome (KM12 colon) was “inactive”. The outcome (HOP-62 NSCLC) was “inactive”, the outcome (NCI-H522 lung) was “inactive” and the outcome (K-562 leukemia) was “inactive”. The outcome (HT29 colon) was “inactive”, the outcome (U251 CNS) was “inactive” and the outcome (SNB-78 CNS) was “inactive”. The outcome (SW-620 colon) was “inactive”, the outcome (UO-31 renal) was “inactive” and the outcome (IGROV1 ovarian) was “inactive”. For the same compound, the outcome (CCRF-CEM leukemia) was “inactive”, the outcome (786-0 renal) was “inactive” and the outcome (SN12C renal) was “inactive”. For the same compound, the outcome (EKVX NSCLC) was “inactive”, the outcome (RXF-631 renal) was “inactive” and the outcome (ACHN renal) was “inactive”. For the same compound, the outcome (NCI-H226 lung) was “inactive”, the outcome (RXF 393 renal) was “inactive” and the outcome (DLD-1 colon) was “inactive”. The outcome (OVCAR-5 ovarian) was “inactive”, the outcome (A549 NSCLC) was “inactive” and the outcome (M14 melanoma) was “inactive”. The outcome (OVCAR-3 ovarian) was “inactive”, the outcome (CAKI-1 renal) was “inactive” and the TGI (HL-60(TB) leukemia) was 49.2 µM. The outcome (HL-60(TB) leukemia) was “inactive”, the outcome (NCI-H23 lung) was “inactive” and the outcome (SF-295 CNS) was “inactive”. The outcome (DMS 114 small cell lung) was “inactive”, the outcome (SNB-75 CNS) was “inactive” and the outcome (COLO 205 colon) was “inactive”. The outcome (OVCAR-4 ovarian) was “inactive”, the outcome (UACC-257 melanoma) was “inactive” and the outcome (SF-539 CNS) was “inactive”. The outcome (HCT-15 colon) was “inactive”, the outcome (NCI-H460 lung) was “inactive” and the outcome (SR leukemia) was “inactive”. The outcome (HCC-2998 colon) was “inactive”, the outcome (SNB-19 CNS) was “inactive” and the outcome (SK-MEL-2 melanoma) was “inactive”. The outcome (RPMI-8226 leukemia) was “inactive”, the outcome (HOP-92 NSCLC) was “inactive” and the outcome (DMS 273 small cell lung) was “inactive”. The outcome (KM20L2 colon) was “inactive”, the outcome (OVCAR-8 ovarian) was “inactive” and the outcome (MALME-3M melanoma) was “inactive”. For the same compound, the outcome (SK-OV-3 ovarian) was “inactive”, the outcome (MOLT-4 leukemia) was “inactive” and the outcome (XF 498 CNS) was “inactive”. The outcome (UACC-62 melanoma) was “inactive”, the outcome (SF-268 CNS) was “inactive” and the outcome (LXFL 529 NSCLC) was “inactive”.

`CCCc1onc(CCC(=O)N(Cc2ccccc2)Cc2ccccc2)c1CC` was tested, and the TGI (LOX IMVI melanoma) was > 100 µM, the TGI (KM12 colon) was > 100 µM and the TGI (HOP-62 NSCLC) was > 100 µM. The TGI (NCI-H522 lung) was > 100 µM, the TGI (K-562 leukemia) was > 100 µM and the TGI (HT29 colon) was > 100 µM. The TGI (U251 CNS) was > 100 µM, the TGI (SNB-78 CNS) was > 100 µM and the TGI (IGROV1 ovarian) was > 100 µM. The TGI (CCRF-CEM leukemia) was > 100 µM, the TGI (786-0 renal) was > 100 µM and the TGI (SN12C renal) was > 100 µM. The TGI (RXF-631 renal) was > 100 µM, the TGI (ACHN renal) was > 100 µM and the TGI (DLD-1 colon) was > 100 µM. For the same compound, the TGI (OVCAR-5 ovarian) was > 100 µM, the TGI (M14 melanoma) was > 100 µM and the TGI (OVCAR-3 ovarian) was > 100 µM. The TGI (CAKI-1 renal) was > 100 µM, the TGI (HL-60(TB) leukemia) was > 100 µM and the TGI (NCI-H23 lung) was > 100 µM. The TGI (SF-295 CNS) was > 100 µM, the TGI (DMS 114 small cell lung) was > 100 µM and the TGI (COLO 205 colon) was > 100 µM. For the same compound, the TGI (OVCAR-4 ovarian) was > 100 µM, the TGI (UACC-257 melanoma) was > 100 µM and the TGI (HCT-15 colon) was > 100 µM. The TGI (M19-MEL melanoma) was > 100 µM, the TGI (NCI-H460 lung) was > 100 µM and the TGI (HCC-2998 colon) was > 100 µM. The TGI (SK-MEL-2 melanoma) was > 100 µM, the TGI (RPMI-8226 leukemia) was > 100 µM and the TGI (HOP-92 NSCLC) was > 100 µM. The TGI (DMS 273 small cell lung) was > 100 µM, the TGI (KM20L2 colon) was > 100 µM and the TGI (MALME-3M melanoma) was > 100 µM. For the same compound, the TGI (A498 renal) was > 100 µM, the TGI (SK-OV-3 ovarian) was > 100 µM and the TGI (MOLT-4 leukemia) was > 100 µM. The TGI (XF 498 CNS) was > 100 µM, the TGI (UACC-62 melanoma) was > 100 µM and the TGI (SF-268 CNS) was > 100 µM. For the same compound, the TGI (LXFL 529 NSCLC) was > 100 µM.
